{"source": "patent US9533049B2", "about": "“Method for preparing nanoparticles based on functional amphiphilic molecules or macromolecules, and the use thereof” (UNIVERSITE VICTOR SEGALEN BOURDEAUX 2, priority 2007, dated 2017)", "assay_type_in_all_cases": "cell-based", "key": {"[1]": {"system": "human cancer cell line HCT8 (colorectal adenocarcinoma)", "test": "Cytotoxicity, crystal violet staining, HCT8 line", "conditions": "HCT8, short exposure 30 min in physiological serum; preliminary results", "method": "The test implemented uses the human cancer cell line HCT8 (colorectal adenocarcinoma), known for its intrinsic resistance to platinum derivatives.\nThe protocol is as follows: • […], the cells are implanted in 96-well plates at a density of 50,000 cells per well. • On D0, the cells are treated by the formulation test, either for a short exposure period (30 min) in physiological serum, or for a long exposure period (72 h) in culture medium. The range of concentrations produced comprises the points 0-0.4-0.8-1.5-3-6.25-12.5-25-50 and 100 mg/L. Negative controls (untreated cells) and positive controls (cis-platin) were carried out simultaneously. • On D3, the culture medium is changed, and the 72 h treatment stopped. • On D6, the protocol is completed, and the cells remaining at the bottom of the well are stained with crystal violet.\n(§1) The survival of the cells was determined, and the overall percentage of death (or cytotoxicity) obtained at the different test formulation concentrations was compared with that obtained with the negative controls (untreated cells). The cytotoxicity results were presented in the form of dose-effect curves characterized by their inhibitory concentration 50 (IC50), i.e. the concentration at which 50% dead cells are observed."}, "[2]": {"system": "IGROV1 cells", "test": "Cytotoxicity, MTS colorimetric assay (Example 21)", "conditions": "IGROV1, incubation time 24 h", "method": "1000 to 5000 IGROV1 cells are incubated in 100 μL of medium with serum per well (96-well plate). After 24 h the medium is removed and the cells are treated for 1 to 3 days with the formulations according to the invention and/or free cis-Pt (at the desired concentrations). The cells are incubated at 37° C. in 200 μL of medium with serum.\nas §1, with “different” for “different test formulation”, “concentrations of formulations tested” for “concentrations”"}, "[3]": {"system": "SKOV3 (ovarian adenocarcinoma line, resistant to cis-platin)", "test": "Cytotoxicity, MTS assay (Example 22), SKOV3", "conditions": "SKOV3, treatment 24 hours in medium without serum, MTS 48 hours after washing; read-out: concentration necessary to obtain 50% cell death (IC50)", "method": "(§2) 2500 cells (IGROV1, SKOV3, ovarian adenocarcinoma lines) per well are incubated in 100 μL of the medium with serum in a 96-well plate. After 24 hours the medium is aspirated and the cells are treated with free cis-platin or cis-platin encapsulated in the nanoparticles of Example 16 in 100 μL of the medium without serum at different concentrations (500, 100, 10, 1, 0.1, 0.01, 0.001 μM). After treatment for 24 hours, the medium is removed and the cells are washed twice with 100 μL of PBS then incubated with 100 μL of the medium with serum.\n(§3) The absorbance at 490 nm is measured after incubation for 2 to 4 hours at 37° C. The absorbance is proportional to the cell viability."}, "[4]": {"system": "IGROV1 cells", "test": "Assay of intracellular cis-platin (ICP optical assay after cell lysis)", "conditions": "10^6 cells, 100 μM, 2 h", "method": "IGROV1 cells (ovarian adenocarcinoma line) at 80% confluence (dish 10 cm in diameter) are treated with 100 μM of free cis-platin or cis-platin encapsulated in the nanoparticles of Example 16 for 2, 4 or 6 h. On completion of this treatment two washings with PBS are carried out. The cells are treated with trypsin and resuspended in PBS. Two washings of the cell suspensions with PBS are carried out (centrifugation 1000 rpm/1 min). The cells are suspended in 1 mL of PBS and counted.\n10^6 cells are lysed with 500 μL of the cell lysis solution (lysis buffer from SIGMA). The volume is topped up to 5 mL with milli-Q water with 1% HNO3 acid."}, "[5]": {"system": "IGROV1 (ovarian adenocarcinoma line, sensitive to cis-platin)", "test": "Cytotoxicity, MTS assay (Example 22), IGROV1", "conditions": "IGROV1, treatment 24 hours in medium without serum, MTS 48 hours after washing; read-out: concentration necessary to obtain 50% cell death (IC50)", "method": "as §2, §3"}}, "note": "pIC50: −log10 of the molar value."}
{"smiles": "N.N.[Cl][Pt][Cl]", "note": "[cis-platin]", "values": [{"measurement": "IC50 (mg/L)", "setting": "[1]", "value": "IC50 > at 100 mg/L"}, {"measurement": "IC50 Expressed", "setting": "[2]; mg/L of cis-platin", "value": 9.48, "unit": "µg/mL"}, {"measurement": "pIC50", "setting": "[2]; read-out: IC50 Expressed", "value": 4.50}, {"measurement": "pIC50", "setting": "[3]", "value": 5.37}, {"measurement": "cis-platin internalized", "setting": "[4]", "value": 0.5, "unit": "nmol"}, {"measurement": "pIC50", "setting": "[5]", "value": 5.62}]}
